Results taken from the OligoGym collection.
HELM strings list units from the 5' end as sugar, base in round brackets, then linkage (d deoxyribose, r ribose, m 2'-O-methyl, p phosphodiester). Strings are as the collection lists them; they lack the last nucleoside at the 3' end of the tested compound. [moe] = 2'-O-(2-methoxyethyl) (MOE); [sp] = phosphorothioate linkage; [m5C] = 5-methylcytosine

Target: SCN2A
Assay: mouse, dose not given
Settings: ASO

Substance | 3 h FOB score [score 0-7]
RNA1{[moe](G)[sp].[moe](T)p.[moe](A)p.[moe](A)p.d([m5C])[sp].d([m5C])[sp].d(T)[sp].d(T)[sp].d(T)[sp].d(A)[sp].d(T)[sp].d(A)[sp].d([m5C])[sp].d(A)[sp].[moe](T)p.[moe](T)p.[moe](T)p.[moe](A)[sp].[moe](A)}$$$$ (last 3' nucleoside missing) | 0
RNA1{[moe](G)[sp].[moe](T)p.[moe](T)p.[moe](T)p.d(T)[sp].d(T)[sp].d(T)[sp].d([m5C])[sp].d(A)[sp].d(T)[sp].d(T)[sp].d(G)[sp].d([m5C])[sp].d(A)[sp].[moe](T)p.[moe]([m5C])p.[moe]([m5C])p.[moe](T)[sp].[moe]([m5C])}$$$$ (last 3' nucleoside missing) | 1
RNA1{[moe](G)[sp].[moe](T)p.[moe](T)p.[moe]([m5C])p.[moe]([m5C])p.d(A)[sp].d(T)[sp].d(T)[sp].d(A)[sp].d(A)[sp].d(A)[sp].d([m5C])[sp].d(T)[sp].d(A)[sp].d(A)[sp].[moe](G)p.[moe](G)p.[moe]([m5C])[sp].[moe](T)}$$$$ (last 3' nucleoside missing) | 1
RNA1{[moe](G)[sp].[moe](T)p.[moe]([m5C])p.[moe](T)p.[moe]([m5C])p.[moe](T)p.d(T)[sp].d(T)[sp].d([m5C])[sp].d(T)[sp].d(T)[sp].d(A)[sp].d(T)[sp].d(T)[sp].d(T)[sp].d([m5C])[sp].[moe](T)p.[moe](G)[sp].[moe](T)}$$$$ (last 3' nucleoside missing) | 1
RNA1{[moe](G)[sp].[moe](T)p.[moe]([m5C])p.[moe](T)p.[moe]([m5C])p.d(T)[sp].d(T)[sp].d(T)[sp].d([m5C])[sp].d(T)[sp].d(T)[sp].d(A)[sp].d(T)[sp].d(T)[sp].d(T)[sp].[moe]([m5C])p.[moe](T)p.[moe](G)[sp].[moe](T)}$$$$ (last 3' nucleoside missing) | 1
RNA1{[moe](G)[sp].[moe](T)p.[moe]([m5C])p.[moe](T)p.d([m5C])[sp].d(T)[sp].d(T)[sp].d(T)[sp].d([m5C])[sp].d(T)[sp].d(T)[sp].d(A)[sp].d(T)[sp].d(T)[sp].[moe](T)p.[moe]([m5C])p.[moe](T)p.[moe](G)[sp].[moe](T)}$$$$ (last 3' nucleoside missing) | 0
RNA1{[moe](G)[sp].[moe]([m5C])p.[moe](A)p.[moe](T)[sp].d(G)[sp].d(T)[sp].d(A)[sp].d(A)[sp].d([m5C])[sp].d([m5C])[sp].d(T)[sp].d(T)[sp].[moe](T)p.[moe](A)p.[moe](T)p.[moe](A)[sp].[moe]([m5C])}$$$$ (last 3' nucleoside missing) | 0
RNA1{[moe](G)[sp].[moe]([m5C])p.[moe](A)p.[moe](T)p.[moe](A)p.[moe](A)p.d(T)[sp].d([m5C])[sp].d([m5C])[sp].d([m5C])[sp].d(A)[sp].d(T)[sp].d(T)[sp].d(A)[sp].d(T)[sp].d(A)[sp].[moe]([m5C])p.[moe](A)[sp].[moe](A)}$$$$ (last 3' nucleoside missing) | 0
RNA1{[moe](G)[sp].[moe]([m5C])p.[moe](A)p.[moe](T)p.[moe](A)p.d(A)[sp].d(T)[sp].d([m5C])[sp].d([m5C])[sp].d([m5C])[sp].d(A)[sp].d(T)[sp].d(T)[sp].d(A)[sp].d(T)[sp].[moe](A)p.[moe]([m5C])p.[moe](A)[sp].[moe](A)}$$$$ (last 3' nucleoside missing) | 0.5
RNA1{[moe](G)[sp].[moe]([m5C])p.[moe](A)p.[moe](T)p.[moe](G)[sp].d(T)[sp].d(A)[sp].d(A)[sp].d([m5C])[sp].d([m5C])[sp].d(T)[sp].d(T)[sp].d(T)[sp].[moe](A)p.[moe](T)p.[moe](A)[sp].[moe]([m5C])}$$$$ (last 3' nucleoside missing) | 0
RNA1{[moe](G)[sp].[moe]([m5C])p.[moe](A)p.[moe](T)p.[moe](G)p.[moe](T)[sp].d(A)[sp].d(A)[sp].d([m5C])[sp].d([m5C])[sp].d(T)[sp].d(T)[sp].d(T)[sp].d(A)[sp].[moe](T)p.[moe](A)[sp].[moe]([m5C])}$$$$ (last 3' nucleoside missing) | 0.33
RNA1{[moe](G)[sp].[moe]([m5C])p.[moe](A)p.[moe](T)p.[moe](G)p.[moe](T)p.d(A)[sp].d(A)[sp].d([m5C])[sp].d([m5C])[sp].d(T)[sp].d(T)[sp].d(T)[sp].d(A)[sp].d(T)[sp].d(A)[sp].[moe]([m5C])p.[moe](A)[sp].[moe](T)}$$$$ (last 3' nucleoside missing) | 0
RNA1{[moe](G)[sp].[moe]([m5C])p.[moe](A)p.[moe](T)p.[moe](G)p.[moe](T)p.d(T)[sp].d(T)[sp].d(A)[sp].d(T)[sp].d([m5C])[sp].d(T)[sp].d(T)[sp].d(A)[sp].d(G)[sp].d(T)[sp].[moe](T)p.[moe]([m5C])[sp].[moe](T)}$$$$ (last 3' nucleoside missing) | 1.67
RNA1{[moe](G)[sp].[moe]([m5C])p.[moe](A)p.[moe](T)p.[moe](G)p.d(T)[sp].d(A)[sp].d(A)[sp].d([m5C])[sp].d([m5C])[sp].d(T)[sp].d(T)[sp].d(T)[sp].d(A)[sp].d(T)[sp].[moe](A)p.[moe]([m5C])p.[moe](A)[sp].[moe](T)}$$$$ (last 3' nucleoside missing) | 0
RNA1{[moe](G)[sp].[moe]([m5C])p.[moe](A)p.[moe](T)p.[moe](G)p.d(T)[sp].d(T)[sp].d(T)[sp].d(A)[sp].d(T)[sp].d([m5C])[sp].d(T)[sp].d(T)[sp].d(A)[sp].d(G)[sp].[moe](T)p.[moe](T)p.[moe]([m5C])[sp].[moe](T)}$$$$ (last 3' nucleoside missing) | 1
RNA1{[moe](G)[sp].[moe]([m5C])p.[moe](A)p.[moe](T)p.d(A)[sp].d(A)[sp].d(T)[sp].d([m5C])[sp].d([m5C])[sp].d([m5C])[sp].d(A)[sp].d(T)[sp].d(T)[sp].d(A)[sp].[moe](T)p.[moe](A)p.[moe]([m5C])p.[moe](A)[sp].[moe](A)}$$$$ (last 3' nucleoside missing) | 0
RNA1{[moe](G)[sp].[moe]([m5C])p.[moe](A)p.[moe](T)p.d(A)[sp].d(T)[sp].d(T)[sp].d([m5C])[sp].d(T)[sp].d(A)[sp].d(A)[sp].d([m5C])[sp].d(A)[sp].d(T)[sp].[moe](G)p.[moe](G)p.[moe](T)p.[moe]([m5C])[sp].[moe](T)}$$$$ (last 3' nucleoside missing) | 1.67
RNA1{[moe](G)[sp].[moe]([m5C])p.[moe](A)p.[moe](T)p.d(G)[sp].d(T)[sp].d(A)[sp].d(A)[sp].d([m5C])[sp].d([m5C])[sp].d(T)[sp].d(T)[sp].d(T)[sp].d(A)[sp].[moe](T)p.[moe](A)p.[moe]([m5C])p.[moe](A)[sp].[moe](T)}$$$$ (last 3' nucleoside missing) | 0
RNA1{[moe](G)[sp].[moe]([m5C])p.[moe](A)p.[moe](T)p.d(G)[sp].d(T)[sp].d(T)[sp].d(T)[sp].d(A)[sp].d(T)[sp].d([m5C])[sp].d(T)[sp].d(T)[sp].d(A)[sp].[moe](G)p.[moe](T)p.[moe](T)p.[moe]([m5C])[sp].[moe](T)}$$$$ (last 3' nucleoside missing) | 0
RNA1{[moe](G)[sp].[moe]([m5C])p.[moe](T)p.[moe](T)p.[moe](T)p.d([m5C])[sp].d([m5C])[sp].d([m5C])[sp].d(T)[sp].d(T)[sp].d(T)[sp].d(A)[sp].d(T)[sp].d(T)[sp].d([m5C])[sp].[moe](A)p.[moe](A)p.[moe](T)[sp].[moe](A)}$$$$ (last 3' nucleoside missing) | 0
RNA1{[moe](G)[sp].[moe]([m5C])p.[moe]([m5C])p.[moe](A)p.d(T)[sp].d(T)[sp].d(T)[sp].d([m5C])[sp].d(T)[sp].d(A)[sp].d(T)[sp].d(A)[sp].d(A)[sp].d([m5C])[sp].[moe](T)p.[moe]([m5C])p.[moe](A)p.[moe](G)[sp].[moe]([m5C])}$$$$ (last 3' nucleoside missing) | 0
RNA1{[moe](G)[sp].[moe]([m5C])p.[moe]([m5C])p.[moe](T)p.[moe](A)p.d([m5C])[sp].d(T)[sp].d(T)[sp].d([m5C])[sp].d([m5C])[sp].d(T)[sp].d(T)[sp].d([m5C])[sp].d([m5C])[sp].d(A)[sp].[moe](A)p.[moe](G)p.[moe](G)[sp].[moe](A)}$$$$ (last 3' nucleoside missing) | 0.33
RNA1{[moe](T)[sp].[moe](A)p.[moe](A)p.[moe](T)p.[moe]([m5C])p.[moe](A)p.d([m5C])[sp].d(T)[sp].d(T)[sp].d(T)[sp].d([m5C])[sp].d(A)[sp].d(T)[sp].d([m5C])[sp].d([m5C])[sp].d(A)[sp].[moe]([m5C])p.[moe](G)[sp].[moe](A)}$$$$ (last 3' nucleoside missing) | 0
RNA1{[moe](T)[sp].[moe](A)p.[moe](A)p.[moe](T)p.[moe]([m5C])p.d(A)[sp].d([m5C])[sp].d(T)[sp].d(T)[sp].d(T)[sp].d([m5C])[sp].d(A)[sp].d(T)[sp].d([m5C])[sp].d([m5C])[sp].[moe](A)p.[moe]([m5C])p.[moe](G)[sp].[moe](A)}$$$$ (last 3' nucleoside missing) | 0
RNA1{[moe](T)[sp].[moe](A)p.[moe](A)p.[moe](T)p.d([m5C])[sp].d(A)[sp].d([m5C])[sp].d(T)[sp].d(T)[sp].d(T)[sp].d([m5C])[sp].d(A)[sp].d(T)[sp].d([m5C])[sp].[moe]([m5C])p.[moe](A)p.[moe]([m5C])p.[moe](G)[sp].[moe](A)}$$$$ (last 3' nucleoside missing) | 0
RNA1{[moe](T)[sp].[moe](A)p.[moe](T)p.[moe](T)p.[moe](T)p.d(T)[sp].d(T)[sp].d([m5C])[sp].d(T)[sp].d(A)[sp].d([m5C])[sp].d(A)[sp].d([m5C])[sp].d(T)[sp].d(G)[sp].[moe]([m5C])p.[moe](T)p.[moe](G)[sp].[moe]([m5C])}$$$$ (last 3' nucleoside missing) | 2.67
